Assay results as given in US12617779B2, “Self degradation-type CDK9 inhibitor prodrug and liposome encapsulating same” (Sumitomo Pharma Co., Ltd., priority 2021, dated 2026).

Experiments:
[1] = Pharmacokinetic test, intravenous solution and liposome formulations in mice (Experimental Example 6); assay type: in vivo; settings: female BALB/c mice
Protocol: This was used as a solution formulation.
This was used as a liposome formulation.
Hydrogenated soybean phosphatidylcholine (COATSOME NC-21E, manufactured by NOF CORPORATION, 3.238 g), cholesterol (manufactured by Sigma, 1.160 g) and 1,2-disteroyl-rac-glycero-3-methylpolyoxyethylen 2000 (SUNBRIGHT GS-020, manufactured by NOF CORPORATION, 0.983 g) were dissolved in tert-butyl alcohol (300 mL) warmed to 65° C. The solution was placed in an eggplant flask and frozen in a dry ice-acetone bath, and then the tert-butyl alcohol was removed by evaporation under reduced pressure to give a lipid mixture.
To the above lipid mixture was added to a 250 mM ammonium sulfate solution (100 mL), and the mixture was warmed to 65° C., and dispersed by a homogenizer (ULTRA-TURRAX, manufactured by IKA) to give a crude liposome dispersion. […] The solution was filtered through a 0.22 μm membrane filter to adjust the total lipid concentration to 75 mM (75 μmol/mL). […] The solution was adjusted to pH 5 to 6 with 1 mol/L aqueous sodium hydroxide solution, warmed in a 65° C. water bath for 3 minutes, and ice-cooled. The liposome outer solution was replaced with 10 mM tartrate buffer solution/10% sucrose solution (pH 4) using a dialysis cassette (Slide-A-Lyzer G2 Dialysis Cassettes 20K MWCO, manufactured by Thermo Scientific), followed by filtration through a 0.22 μm membrane filter to adjust the concentration.
The solution formulation or liposome formulation was instantly administered intravenously to 7-week-old female BALB/c mice, and the blood was collected over time from the jugular vein without anesthesia up to 24 hours after administration for the solution formulation administration group and up to 72 hours after administration for the liposome formulation administration group. […] The plasma sample was centrifuged, and the concentrations of the test compound and Alvocidib in the obtained supernatant were determined by LC-MS/MS.

[2] = Evaluation of conversion rate to active form in buffer solution (Experimental Example 1); assay type: physicochemical; settings: for Production rate of Alvocidib / Residual rate: 25 umol/L in buffer solution
Procedure, shortened: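 Stability across pH: 25 umol/L, 37° C, 50 mM citrate/phosphate, pH 5.0–7.4. Sampling at 0, 0.5, 1, 2, 3 h; HPLC determined loss of compound and Alvocidib generated.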

Question: For `CCN(C[C@@H]1CCCCN1)C(=O)Oc1cc(O)c2c(=O)cc(-c3ccccc3Cl)oc2c1[C@H]1CCN(C)C[C@H]1O` [Example 1, 2-(2-chlorophenyl)-5-hydroxy-8-[(3S,4R)-3-hydroxy-1-methylpiperidin-4-yl]-4-oxo-4H-1-benzopyran-7-yl ethyl{[(2S)-piperidin-2-yl]methyl}carbamate ditrifluoroacetate], which “Blood retention of liposome formulation compared with the corresponding solution formulation” value [1] is on record?
Answer: higher blood retention

Question: What about the “Efficiency of conversion to Alvocidib” value ([2]; buffer solution, 37° C.) of the same molecule?
Answer: higher efficiency

Question: And the “Production rate of Alvocidib” value ([2]; pH5.0, 0 hr, 37° C.)?
Answer: 0.0%

Question: And the Residual rate ([2]; pH5.0, 0 hr, 37° C.)?
Answer: 98.7%

Question: What about the “Stability in buffer solution at pH 5” value ([2]; pH 5, 37° C., up to 2 or 3 hours) of the same molecule?
Answer: stable

Question: What about the “Production rate of Alvocidib” value ([2]; pH5.0, 0.5 hr, 37° C.) of the same molecule?
Answer: 0.4%

Question: And the Residual rate ([2]; pH5.0, 0.5 hr, 37° C.)?
Answer: 98.4%

Question: What about the “Production rate of Alvocidib” value ([2]; pH5.0, 1 hr, 37° C.) of the same molecule?
Answer: 0.7%

Question: And the Residual rate ([2]; pH5.0, 1 hr, 37° C.)?
Answer: 98.1%

Question: What about the “Production rate of Alvocidib” value ([2]; pH5.0, 2 hr, 37° C.) of the same molecule?
Answer: 1.3%

Question: What about the Residual rate ([2]; pH5.0, 2 hr, 37° C.) of the same molecule?
Answer: 97.4%

Question: What about the “Production rate of Alvocidib” value ([2]; pH5.0, 3 hr, 37° C.) of the same molecule?
Answer: 1.8%

Question: What about the Residual rate ([2]; pH5.0, 3 hr, 37° C.) of the same molecule?
Answer: 96.9%

Question: And the “Production rate of Alvocidib” value ([2]; pH5.5, 0 hr, 37° C.)?
Answer: 0.0%

Question: What about the Residual rate ([2]; pH5.5, 0 hr, 37° C.) of the same molecule?
Answer: 98.8%

Question: What about the “Production rate of Alvocidib” value ([2]; pH5.5, 0.5 hr, 37° C.) of the same molecule?
Answer: 1.0%

Question: What about the Residual rate ([2]; pH5.5, 0.5 hr, 37° C.) of the same molecule?
Answer: 97.3%

Question: What about the “Production rate of Alvocidib” value ([2]; pH5.5, 1 hr, 37° C.) of the same molecule?
Answer: 1.8%

Question: And the Residual rate ([2]; pH5.5, 1 hr, 37° C.)?
Answer: 97.1%

Question: What about the “Production rate of Alvocidib” value ([2]; pH5.5, 2 hr, 37° C.) of the same molecule?
Answer: 3.5%

Question: And the Residual rate ([2]; pH5.5, 2 hr, 37° C.)?
Answer: 95.3%

Question: And the “Production rate of Alvocidib” value ([2]; pH5.5, 3 hr, 37° C.)?
Answer: 5.1%

Question: And the Residual rate ([2]; pH5.5, 3 hr, 37° C.)?
Answer: 93.8%

Question: And the “Production rate of Alvocidib” value ([2]; pH6.0, 0 hr, 37° C.)?
Answer: 0.0%

Question: What about the Residual rate ([2]; pH6.0, 0 hr, 37° C.) of the same molecule?
Answer: 99.2%

Question: What about the “Production rate of Alvocidib” value ([2]; pH6.0, 0.5 hr, 37° C.) of the same molecule?
Answer: 3.3%

Question: And the Residual rate ([2]; pH6.0, 0.5 hr, 37° C.)?
Answer: 95.5%

Question: And the “Production rate of Alvocidib” value ([2]; pH6.0, 1 hr, 37° C.)?
Answer: 6.3%

Question: What about the Residual rate ([2]; pH6.0, 1 hr, 37° C.) of the same molecule?
Answer: 92.5%

Question: What about the “Production rate of Alvocidib” value ([2]; pH6.0, 2 hr, 37° C.) of the same molecule?
Answer: 12.0%

Question: What about the Residual rate ([2]; pH6.0, 2 hr, 37° C.) of the same molecule?
Answer: 86.8%

Question: And the “Production rate of Alvocidib” value ([2]; pH6.0, 3 hr, 37° C.)?
Answer: 17.0%

Question: What about the Residual rate ([2]; pH6.0, 3 hr, 37° C.) of the same molecule?
Answer: 81.8%

Question: What about the “Production rate of Alvocidib” value ([2]; pH6.5, 0 hr, 37° C.) of the same molecule?
Answer: 0.0%

Question: And the Residual rate ([2]; pH6.5, 0 hr, 37° C.)?
Answer: 98.4%

Question: What about the “Production rate of Alvocidib” value ([2]; pH6.5, 0.5 hr, 37° C.) of the same molecule?
Answer: 8.7%

Question: What about the Residual rate ([2]; pH6.5, 0.5 hr, 37° C.) of the same molecule?
Answer: 90.2%

Question: What about the “Production rate of Alvocidib” value ([2]; pH6.5, 1 hr, 37° C.) of the same molecule?
Answer: 16.4%

Question: What about the Residual rate ([2]; pH6.5, 1 hr, 37° C.) of the same molecule?
Answer: 82.0%

Question: And the “Production rate of Alvocidib” value ([2]; pH6.5, 2 hr, 37° C.)?
Answer: 30.1%

Question: And the Residual rate ([2]; pH6.5, 2 hr, 37° C.)?
Answer: 68.4%

Question: And the “Production rate of Alvocidib” value ([2]; pH6.5, 3 hr, 37° C.)?
Answer: 40.7%

Question: What about the Residual rate ([2]; pH6.5, 3 hr, 37° C.) of the same molecule?
Answer: 57.7%

Question: And the “Production rate of Alvocidib” value ([2]; pH7.0, 0 hr, 37° C.)?
Answer: 0.0%

Question: And the Residual rate ([2]; pH7.0, 0 hr, 37° C.)?
Answer: 98.9%

Question: And the “Production rate of Alvocidib” value ([2]; pH7.0, 0.5 hr, 37° C.)?
Answer: 23.2%

Question: And the Residual rate ([2]; pH7.0, 0.5 hr, 37° C.)?
Answer: 75.0%

Question: And the “Production rate of Alvocidib” value ([2]; pH7.0, 1 hr, 37° C.)?
Answer: 41.1%

Question: And the Residual rate ([2]; pH7.0, 1 hr, 37° C.)?
Answer: 57.8%

Question: What about the “Production rate of Alvocidib” value ([2]; pH7.0, 2 hr, 37° C.) of the same molecule?
Answer: 65.3%

Question: And the Residual rate ([2]; pH7.0, 2 hr, 37° C.)?
Answer: 33.5%

Question: What about the “Production rate of Alvocidib” value ([2]; pH7.0, 3 hr, 37° C.) of the same molecule?
Answer: 77.1%

Question: What about the Residual rate ([2]; pH7.0, 3 hr, 37° C.) of the same molecule?
Answer: 21.0%

Question: And the “Production rate of Alvocidib” value ([2]; pH7.4, 0 hr, 37° C.)?
Answer: 0.4%

Question: What about the Residual rate ([2]; pH7.4, 0 hr, 37° C.) of the same molecule?
Answer: 98.5%

Question: What about the “Conversion to Alvocidib at pH 7.4” value ([2]; pH 7.4, 37° C., up to 3 hours) of the same molecule?
Answer: rapidly converted to Alvocidib

Question: And the “Production rate of Alvocidib” value ([2]; pH7.4, 0.5 hr, 37° C.)?
Answer: 44.9%

Question: What about the Residual rate ([2]; pH7.4, 0.5 hr, 37° C.) of the same molecule?
Answer: 53.8%

Question: What about the “Production rate of Alvocidib” value ([2]; pH7.4, 1 hr, 37° C.) of the same molecule?
Answer: 69.3%

Question: And the Residual rate ([2]; pH7.4, 1 hr, 37° C.)?
Answer: 29.3%

Question: What about the “Production rate of Alvocidib” value ([2]; pH7.4, 2 hr, 37° C.) of the same molecule?
Answer: 87.6%

Question: And the Residual rate ([2]; pH7.4, 2 hr, 37° C.)?
Answer: 11.3%

Question: What about the “Production rate of Alvocidib” value ([2]; pH7.4, 3 hr, 37° C.) of the same molecule?
Answer: 91.4%

Question: And the Residual rate ([2]; pH7.4, 3 hr, 37° C.)?
Answer: 6.9%
